Where “and” joins values, the source holds several entries; their conditions need not be identical. Identical values can stand only once. Like-named read-outs stand apart in the source and are kept apart here. Residues, ends and D or L forms follow the SMILES beside them. *: point of attachment. FITC = O=C1OC2(c3ccc(O)cc3Oc3cc(O)ccc32)c2ccc(NC(=S)*)cc21
Tests used:
[1] = system: bEnd.3 mouse brain endothelial cells
Procedure: The bEnd.3 (mouse brain endothelial cell) cell line, purchased from Bioresource Collection and Research Center (BCRC, Taiwan), was used in this study. Prior to experiments, the cells were cultured in Dulbecco’s modified Eagle’s medium (DMEM; HyClone, cat. #SH30003.02) with 10% fetal bovine serum (Gibco, cat. #10437028) and 1% penicillin-streptomycin (Gibco, cat. #15140112), and were passaged every 2–3 days with 0.25% trypsin-EDTA (Gibco, cat. #25200056).
Cellular metabolic activity was measured by MTT (thiazolyl blue tetrazolium bromide) assay 24 h after treatment by normothermia (37°C), hypothermia (4°C), sodium azide (NaN3)/2-deoxy-D-glucose (2-DG), cytochalasin D, 5-(N-ethyl-N-isopropyl)-amiloride (EIPA), or methyl-beta-cyclodextrin (MβCD). In brief, MTT assay was performed with 2000 cells in culture by first replacing the cell culture medium with medium containing 0.5 mg/ml MTT (Alfa Aesar, cat. #L11939). After a 4-h incubation period to allow for MTT metabolism, the MTT-containing medium was replaced with 100 μl of dimethyl sulfoxide (DMSO; JT Baker), and the culture plate was placed on a shaker for 10 min to allow for dissolution of the violet crystal metabolites. Thereafter, the optical density of the metabolite was measured at 570 nm by an ELISA reader. The optical density of the metabolite in the hypothermia and drug treatment groups was expressed as percentage relative to the optical density of the metabolite in the normothermia and control groups, respectively.

[2] = system: monolayer of bEnd.3 mouse brain endothelial cells; assay: Permeability across a monolayer of brain endothelial cells (in vitro BBB model); assay type: in vitro ADME; set-up: Diffusion of FITC-TAT across bEnd.3 monolayer / Diffusion of FITC-linked peptide across bEnd.3 monolayer / Diffusion of FITC-TAT across bEnd.3 monolayer, FITC-TAT + TAT / Diffusion of FITC-TAT across bEnd.3 monolayer, FITC-TAT + TATK/R>A: unit not given here; conditions: for Rate of diffusion across the monolayer compared with FITC-TAT: bEnd.3 monolayer; for Diffusion of FITC-linked peptide across bEnd.3 monolayer: fluorescence spectrophotometry
[3] = peptide 1 μM (Fig 3A), diffusion time 0.1 h, individual cultures n = 4
[4] = peptide 1 μM (Fig 3A), diffusion time 4 h, individual cultures n = 4
[5] = peptide 1 μM (Fig 3A), diffusion time 12 h, individual cultures n = 4
[6] = peptide 1 μM (Fig 3A), diffusion time 24 h, individual cultures n = 4
[7] = peptide 3 μM (Fig 3B), diffusion time 0.1 h, individual cultures n = 4
[8] = peptide 3 μM (Fig 3B), diffusion time 4 h, individual cultures n = 4
[9] = peptide 3 μM (Fig 3B), diffusion time 12 h, individual cultures n = 4
[10] = peptide 3 μM (Fig 3B), diffusion time 24 h, individual cultures n = 4
[11] = peptide 10 μM (Fig 3C), diffusion time 0.1 h, individual cultures n = 4
[12] = peptide 10 μM (Fig 3C), diffusion time 4 h, individual cultures n = 4
[13] = peptide 10 μM (Fig 3C), diffusion time 12 h, individual cultures n = 4
[14] = peptide 10 μM (Fig 3C), diffusion time 24 h, individual cultures n = 4

Compound	Effect on cellular metabolic activity, MTT [1]	Rate of diffusion across the monolayer compared with FITC-TAT ([2]; 1 μM concentration, Fig 3A)	Rate of diffusion across the monolayer compared with FITC-TAT ([2]; 3 μM concentration, Fig 3B)	Rate of diffusion across the monolayer compared with FITC-TAT ([2]; 10 μM concentration, Fig 3C)	Diffusion of FITC-linked peptide across bEnd.3 monolayer [2, 3]	Diffusion of FITC-linked peptide across bEnd.3 monolayer [2, 4]	Diffusion of FITC-linked peptide across bEnd.3 monolayer [2, 5]	Diffusion of FITC-linked peptide across bEnd.3 monolayer [2, 6]	Diffusion of FITC-linked peptide across bEnd.3 monolayer [2, 7]	Diffusion of FITC-linked peptide across bEnd.3 monolayer [2, 8]	Diffusion of FITC-linked peptide across bEnd.3 monolayer [2, 9]	Diffusion of FITC-linked peptide across bEnd.3 monolayer [2, 10]	Diffusion of FITC-linked peptide across bEnd.3 monolayer [2, 11]	Diffusion of FITC-linked peptide across bEnd.3 monolayer [2, 12]	Diffusion of FITC-linked peptide across bEnd.3 monolayer [2, 13]	Diffusion of FITC-linked peptide across bEnd.3 monolayer [2, 14]	also measured
CCN(c1nc(N)c(C(=O)N=C(N)N)nc1Cl)C(C)C [EIPA, 5-(N-ethyl-N-isopropyl)-amiloride]	markedly decreased cellular metabolic activity	–	–	–	–	–	–	–	–	–	–	–	–	–	–	–	–
C[C@H](NC(=O)[C@H](C)NC(=O)[C@H](C)NC(=O)[C@H](CCC(N)=O)NC(=O)[C@H](C)NC(=O)[C@H](C)NC(=O)[C@H](C)NC(=O)[C@H](C)NC(=O)[C@H](C)NC(=O)CNC(=O)[C@H](Cc1ccc(O)cc1)NC(=S)Nc1ccc2c(c1)C(=O)OC21c2ccc(O)cc2Oc2cc(O)ccc21)C(=O)O [FITC-TATK/R>A] ({FITC}-YGAAAAAQAAA-OH)	–	much lower rate than FITC-TAT	much lower rate than FITC-TAT	much lower rate than FITC-TAT	16.9505 and 16.508 and 16.5507 and 15.9581	28.9506 and 32.0869 and 31.9736 and 31.2514	42.2787 and 47.1236 and 45.2026 and 46.9823	65.8175 and 68.5893 and 66.6226 and 69.1937	6.156 and 4.865 and 2.668 and 3.238	19.8822 and 11.958 and 7.983 and 9.049	39.1651 and 26.1724 and 19.7108 and 16.4957	49.6596 and 34.462 and 23.6779 and 22.9503	1.811 and 1.623 and 2.572 and 1.851	18.7947 and 19.4252 and 20.5729 and 16.0903	38.7338 and 38.9661 and 39.2385 and 32.797	65.0223 and 61.702 and 66.1075 and 57.2466	Diffusion of FITC-linked peptide across bEnd.3 monolayer ([2]; peptide 10 μM alone (Fig 3D), diffusion time 0.1 h, individual cultures n = 3): 2.221 and 2.035 and 1.973; Diffusion of FITC-linked peptide across bEnd.3 monolayer ([2]; peptide 10 μM alone (Fig 3D), diffusion time 12 h, individual cultures n = 3): 29.1435 and 26.4948 and 29.3071; Diffusion of FITC-linked peptide across bEnd.3 monolayer ([2]; peptide 10 μM alone (Fig 3D), diffusion time 24 h, individual cultures n = 3): 54.4105 and 51.9054 and 56.2316
N=C(N)NCCC[C@H](NC(=O)[C@H](CCCNC(=N)N)NC(=O)[C@H](CCCCN)NC(=O)[C@H](Cc1ccc(O)cc1)NC(=O)[C@H](CCCNC(=N)N)NC(=O)[C@H](CCCNC(=N)N)NC(=O)[C@H](CCCNC(=N)N)NC(=O)[C@H](CCCNC(=N)N)NC(=O)[C@H](CCCCN)NC(=S)Nc1ccc2c(c1)C(=O)OC21c2ccc(O)cc2Oc2cc(O)ccc21)C(=O)N[C@@H](CCC(N)=O)C(=O)NCC(=O)O [FITC-TATscrambled] ({FITC}-KRRRRYKRRQG-OH)	–	marginally higher rate than FITC-TAT	rate equal to that of FITC-TAT	marginally lower than FITC-TAT	16.6121 and 16.5353 and 16.6054 and 15.9771	37.5047 and 37.4667 and 38.2192 and 36.5367	71.5027 and 70.7894 and 73.1753 and 67.019	112.675 and 114.406 and 111.607 and 110.916	5.913 and 5.203	27.0594 (2×) and 32.066 and 20.6139	76.2224 (2×) and 56.9939 and 73.6994	111.452 (2×) and 91.4132 and 89.6289	1.995 and 1.727 and 1.576 and 1.501	22.9531 and 16.5248 and 15.9626 and 15.9604	52.8508 and 41.023 and 42.3549 and 44.9043	105.008 and 91.7182 and 94.732 and 94.0226	–
C=C1[C@@H](C)[C@H]2[C@H](Cc3ccccc3)NC(=O)[C@]23[C@H](OC(C)=O)/C=C/[C@@](C)(O)C(=O)[C@@H](C)C/C=C/[C@H]3[C@@H]1O [cytochalasin D]	–	–	–	–	–	–	–	–	–	–	–	–	–	–	–	–	Effect on cellular metabolic activity, MTT ([1]; bEnd.3, pre-treatment for 30 min followed by washout, Fig 4A): had no effect on cellular metabolic activity; Effect on cellular metabolic activity, MTT ([1]; bEnd.3, sustained treatment for 24 h, Fig 4A): increased cellular metabolic activity in a concentration-dependent manner
methyl-beta-cyclodextrin [MβCD]	markedly decreased cellular metabolic activity	–	–	–	–	–	–	–	–	–	–	–	–	–	–	–	–

— article PMC10566733 (PLOS ONE, 2023)
